Results from US9242984B2, “Pyrazolyl derivatives as Syk inhibitors” (Merck Sharp & Dohme Corp., priority 2012, dated 2016).
Where two headings read alike, the source gives them in different places.

Target: T1, recombinant human Syk (GST-hSyk fusion protein) (Homo sapiens, UniProt P43405)
T1 construct: purchased Carna Biosciences 08-176
Assay: Homogeneous Time-Resolved Fluorescence (HTRF) assay for the recombinant human Syk enzyme
Type: biochemical
Details: 10-dose titration, 25 μM ATP
Outline: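 GST-hSyk (5 pM) preincubated 10 min with compound (0.1% DMSO) in 15 mM Tris-HCl pH 7.5, 2 mM DTT; reaction started with 250 nM biotinylated peptide, 5 mM Mg, 25 μM ATP, 45 min, room temperature. EDTA quench, Eu-anti-phosphotyrosine/SA-APC HTRF read after 30 min; IC50 from 10-dose titration (10 μM–0.508 nM), four-parameter fit.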

[1] = IC50 class, read-out: rhSYK Activity

| Structure (SMILES) | IC50 [1] | IC50 (read-out: rhSYK IC50) |
| --- | --- | --- |
| Cc1cc(Nc2ncc(F)c(C(F)F)n2)cc(-c2cnn(CC3OC(=O)NC3C)c2)c1 (single isomer, unassigned) [Example 23.21, 5-{[4-(3-{[4-(difluoromethyl)-5-fluoropyrimidin-2-yl]amino}-5-methylphenyl)-1H-pyrazol-1-yl]methyl}-4-methyl-1,3-oxazolidin-2-one] | ≤ 100 nM | – |
| Cc1cc(Nc2nccc(C(F)F)n2)cc(-c2cnn(CC(C)(O)C(F)(F)F)c2)c1 (single isomer, unassigned) [Example 24.1, (S or R)-3-(4-(3-((4-(difluoromethyl)pyrimidin-2-yl)amino)-5-methylphenyl)-1H-pyrazol-1-yl)-1,1,1-trifluoro-2-methylpropan-2-ol] | ≤ 100 nM | 2.6 nM |
| Cc1cc(Nc2nccc(C(F)F)n2)cc(-c2cnn(CC(C)(O)C(F)(F)F)c2)c1 (single isomer, unassigned) [Example 24.2, (S or R)-3-(4-(3-((4-(difluoromethyl)pyrimidin-2-yl)amino)-5-methylphenyl)-1H-pyrazol-1-yl)-1,1,1-trifluoro-2-methylpropan-2-ol] | ≤ 100 nM | 6.2 nM |
| Cc1cc(Nc2nccc(C(F)F)n2)cc(-c2cnn(CC(O)(CO)C(F)(F)F)c2)c1 (single isomer, unassigned) [Example 25.1, 2-((4-(3-((4-(Difluoromethyl)pyrimidin-2-yl)amino)-5-methylphenyl)-1H-pyrazol-1-yl)methyl)-3,3,3-trifluoropropane-1,2-diol] | ≤ 100 nM | 3.2 nM |
| Cc1cc(Nc2nccc(C)n2)cc(-c2cnn(CC(C)(O)CO)c2)c1 (single isomer, unassigned) [Example 25.2, 2-methyl-3-(4-{3-methyl-5-[(4-methylpyrimidin-2-yl)amino]phenyl}-1H-pyrazol-1-yl)propane-1,2-diol] | ≤ 100 nM | – |
| Cc1cc(Nc2nccc(C(F)F)n2)cc(-c2cnn(CC(C)(O)CO)c2)c1 (single isomer, unassigned) [Example 25.3, 3-[4-(3-{[4-(difluoromethyl)pyrimidin-2-yl]amino}-5-methylphenyl)-1H-pyrazol-1-yl]-2-methylpropane-1,2-diol] | ≤ 100 nM | – |
| Cc1cc(Nc2nccc(C)n2)cc(-c2cnn(CC(C)(O)CO)c2)c1 (single isomer, unassigned) [Example 25.4, 2-methyl-3-(4-{3-methyl-5-[(4-methylpyrimidin-2-yl)amino]phenyl}-1H-pyrazol-1-yl)propane-1,2-diol] | ≤ 100 nM | – |
| Cc1cc(Nc2nccc(C(F)F)n2)cc(-c2cnn(CC(C)(O)CO)c2)c1 (single isomer, unassigned) [Example 25.5, 3-[4-(3-{[4-(difluoromethyl)pyrimidin-2-yl]amino}-5-methylphenyl)-1H-pyrazol-1-yl]-2-methylpropane-1,2-diol] | ≤ 100 nM | – |
| Cc1cc(Nc2nccc([C@@H](C)F)n2)cc(-c2cnn(CC(C)(O)CO)c2)c1 (single isomer, unassigned) [Example 25.6] | ≤ 100 nM | – |
| Cc1cc(Nc2nccc([C@H](C)F)n2)cc(-c2cnn(CC(C)(O)CO)c2)c1 (single isomer, unassigned) [Example 25.7] | ≤ 100 nM | – |
| Cc1cc(Nc2nccc([C@@H](C)F)n2)cc(-c2cnn(CC(C)(O)CO)c2)c1 (single isomer, unassigned) [Example 25.8] | ≤ 100 nM | – |
| Cc1cc(Nc2ncc(F)c(C(F)F)n2)cc(-c2cnn(CC(C)(O)CO)c2)c1 (single isomer, unassigned) [Example 25.9, 3-[4-(3-{[4-(difluoromethyl)-5-fluoropyrimidin-2-yl]amino}-5-methylphenyl)-1H-pyrazol-1-yl]-2-methylpropane-1,2-diol] | ≤ 100 nM | – |
| Cc1cc(Nc2ncc(F)c(C(F)F)n2)cc(-c2cnn(CC(C)(O)CO)c2)c1 (single isomer, unassigned) [Example 25.10, 3-[4-(3-{[4-(difluoromethyl)-5-fluoropyrimidin-2-yl]amino}-5-methylphenyl)-1H-pyrazol-1-yl]-2-methylpropane-1,2-diol] | ≤ 100 nM | – |

Further lines, results first:

| IC50 [1] | IC50 (read-out: rhSYK IC50) | Structure (SMILES) |
| --- | --- | --- |
| ≤ 100 nM | 57.5 nM | Cc1cc(Nc2ncccn2)cc(-c2cnn(C(C)c3ccc(C(N)=O)cc3)c2)c1 (single isomer, unassigned) [Example 28.1, 4-(1-(4-(3-Methyl-5-(pyrimidin-2-ylamino)phenyl)-1H-pyrazol-1-yl)ethyl)benzamide] |
| ≤ 100 nM | 7.2 nM | Cc1cc(Nc2ncccn2)cc(-c2cnn(C(C)c3ccc(C(N)=O)cc3)c2)c1 (single isomer, unassigned) [Example 28.2, 4-(1-(4-(3-methyl-5-(pyrimidin-2-ylamino)phenyl)-1H-pyrazol-1-yl)ethyl)benzamide] |
| ≤ 100 nM | 48.3 nM | Cc1cc(Nc2ncccn2)cc(-c2cnn(C3CC(C(N)=O)C3)c2)c1 (single isomer, unassigned) [Example 30.1, 3-(4-(3-Methyl-5-(pyrimidin-2-ylamino)phenyl)-1H-pyrazol-1-yl)cyclobutanecarboxamide] |
| ≤ 100 nM | 34.9 nM | Cc1cc(Nc2ncccn2)cc(-c2cnn(C3CC(C(N)=O)C3)c2)c1 (single isomer, unassigned) [Example 31.1, 3-(4-(3-Methyl-5-(pyrimidin-2-ylamino)phenyl)-1H-pyrazol-1-yl)cyclobutanecarboxamide] |
| ≤ 100 nM | 1.6 nM | Cc1cc(Nc2nccc(C(F)F)n2)cc(-c2cnn(CC(O)(CO)C(F)(F)F)c2)c1 (single isomer, unassigned) [Example 32.1, (S or R)-2-((4-(3-((4-(difluoromethyl)pyrimidin-2-yl)amino)-5-methylphenyl)-1H-pyrazol-1-yl)methyl)-3,3,3-trifluoropropane-1,2-diol] |
| ≤ 100 nM | 3.3 nM | Cc1cc(Nc2nccc(C(F)F)n2)cc(-c2cnn(CC(O)(CO)C(F)(F)F)c2)c1 (single isomer, unassigned) [Example 32.2, (S or R)-2-((4-(3-((4-(difluoromethyl)pyrimidin-2-yl)amino)-5-methylphenyl)-1H-pyrazol-1-yl)methyl)-3,3,3-trifluoropropane-1,2-diol] |
| ≤ 100 nM | 1.6 nM | Cc1cc(Nc2nccc(C(F)F)n2)cc(-c2cnn(CC3OC(=O)NC3CO)c2)c1 (single isomer, unassigned) [Example 33.1, 5-{[4-(3-{[4-(difluoromethyl)pyrimidin-2-yl]amino}-5-methylphenyl)-1H-pyrazol-1-yl]methyl}-4-(hydroxymethyl)-1,3-oxazolidin-2-one] |
| ≤ 100 nM | – | Cc1cc(Nc2nccc(C(F)F)n2)cc(-c2cnn(CC3OC(=O)NC3CO)c2)c1 (single isomer, unassigned) [Example 33.2, 5-{[4-(3-{[4-(difluoromethyl)pyrimidin-2-yl]amino}-5-methylphenyl)-1H-pyrazol-1-yl]methyl}-4-(hydroxymethyl)-1,3-oxazolidin-2-one] |
| ≤ 100 nM | – | Cc1cc(Nc2nccc(C(F)F)n2)cc(-c2cnn(CC3OC(=O)NC3CO)c2)c1 (single isomer, unassigned) [Example 33.3, 5-{[4-(3-{[4-(difluoromethyl)pyrimidin-2-yl]amino}-5-methylphenyl)-1H-pyrazol-1-yl]methyl}-4-(hydroxymethyl)-1,3-oxazolidin-2-one] |
